Structures are written as SMILES.

The target of this assay is T1, PIk1 (Homo sapiens, UniProt P53350).
T1 construct: His tag (histidine tag) (N); made in house; host or cells: SF9 insect cells
T1 sequence (P53350 whole entry): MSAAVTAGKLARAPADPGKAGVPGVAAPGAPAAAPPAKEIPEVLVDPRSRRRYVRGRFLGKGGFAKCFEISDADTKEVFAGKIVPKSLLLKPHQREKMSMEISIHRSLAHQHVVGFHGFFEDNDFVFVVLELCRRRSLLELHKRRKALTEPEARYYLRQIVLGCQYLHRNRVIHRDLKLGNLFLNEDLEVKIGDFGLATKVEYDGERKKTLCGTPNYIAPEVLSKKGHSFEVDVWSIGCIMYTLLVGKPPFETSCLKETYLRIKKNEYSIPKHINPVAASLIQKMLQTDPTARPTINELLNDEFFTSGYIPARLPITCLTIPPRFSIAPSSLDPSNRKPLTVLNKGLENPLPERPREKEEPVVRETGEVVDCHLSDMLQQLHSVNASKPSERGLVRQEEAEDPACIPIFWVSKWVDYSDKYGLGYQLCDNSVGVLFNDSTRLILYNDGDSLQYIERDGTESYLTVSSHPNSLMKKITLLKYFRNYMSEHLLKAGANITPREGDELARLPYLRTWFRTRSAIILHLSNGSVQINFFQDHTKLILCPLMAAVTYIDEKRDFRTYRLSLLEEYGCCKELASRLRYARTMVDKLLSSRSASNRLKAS
As to the kind of experiment: PIk1 kinase activity inhibition assay (33P incorporation into alpha casein, flash plates). The format is biochemical. Conditions: recombinant N-terminally histidine-tagged PIk1, alpha casein as substrate, 100 nM Li-ATP, 80 minutes at 30°C. On the procedure:
The inhibition of PIk1 kinase activity can be measured using recombinant PIk1 protein expressed as an N-terminally histidine-tagged protein in SF9 insect cells and alpha casein as substrate. The PIk1 assay is run in 96 well plates by incubating 50 to 100 ng per well recombinant PIk1, 500 ng per well alpha casein (Sigma, # C-6780) as substrate, 10 µl of compound of invention (test compounds were dissolved as 20 mM solutions in dimethylsulfoxide (DMSO) and subsequently diluted), and 100 nM Li-ATP (including ^33P-ATP) in 100 µl of reaction buffer ([…], pH 7.5; 3 mM MgCl2; 3 mM MnCl2; 3 µM Na-Orthovanadat; 1 mM DTT; 1 µg/ml PEG 8000) for 80 minutes at 30°C. The reactions are terminated by adding 100 µl stopping buffer (2% H3PO4 for 5 minutes) and are washed 3 times with washing solution (0,9% NaCl). Determining ^33P incorporated into the protein substrate alpha casein, the detection is based on the adhesion of the phosphorylated protein to the surface of scintillator-coated flash plates (Perkin Elmer, USA; # SMP-200). Phosphorylation of alpha casein is measured by counting the radioactivity bound to the plate for 60 sec. using a plate reader (Perkin Elmer, USA; Wallac Microbeta). By this method, the IC50 value of the PIk1 inhibition is determined as described above. […]
In general, IC50 refers to the concentration at which inhibition is half-maximal. As for `COc1cc(C(=O)NC2CCN(C)CC2)ccc1Nc1ncc2c(cc(OCc3ccccc3)c(=O)n2C)n1` [Example 1, 4-{[7-(benzyloxy)-5-methyl-6-oxo-5,6-dihydropyrido[3,2-d]pyrimidin-2-yl]amino}-3-methoxy-N-(1-methylpiperidin-4-yl)benzamide], the IC50 is < 1000 nM.
As for `C/C=C/c1c(OC)c(=O)n(C)c2cnc(Nc3ccc(C(=O)NC4CCN(C)CC4)cc3OC)nc12` [Example 2, 3-methoxy-4-({7-methoxy-5-methyl-6-oxo-8-[(E)-prop-1-en-1-yl]-5,6-dihydropyrido[3,2-d]pyrimidin-2-yl}amino)-N-(1-methylpiperidin-4-yl)benzamide], the IC50 is < 100 nM.
The value for `COc1cc(C(=O)NC2CCN(C)CC2)ccc1Nc1ncc2c(n1)c(-c1ccccc1)c(OC)c(=O)n2C` [Example 3, 3-methoxy-4-[(7-methoxy-5-methyl-6-oxo-8-phenyl-5,6-dihydropyrido[3,2-d]pyrimidin-2-yl)amino]-N-(1-methylpiperidin-4-yl)benzamide] was < 100 nM; that for `COc1cc(C(=O)NC2CCN(C)CC2)ccc1Nc1ncc2c(n1)c(-c1ccsc1)c(OC)c(=O)n2C` [Example 4, 3-methoxy-4-{[7-methoxy-5-methyl-6-oxo-8-(3-thienyl)-5,6-dihydro-pyrido[3,2-d]pyrimidin-2-yl]amino}-N-(1-methylpiperidin-4-yl)benzamide] was < 10 nM; that for `COc1cc(C(=O)NC2CCN(C)CC2)ccc1Nc1ncc2c(n1)c(-c1cccs1)c(OC)c(=O)n2C` [Example 5, 3-methoxy-4-{[7-methoxy-5-methyl-6-oxo-8-(2-thienyl)-5,6-dihydro-pyrido[3,2-d]pyrimidin-2-yl]amino}-N-(1-methylpiperidin-4-yl)benzamide] was < 100 nM.
With `COc1cc(C(=O)NC2CCN(C)CC2)ccc1Nc1ncc2c(n1)c(C1=CCCC1)c(OC)c(=O)n2C` [Example 6, 4-[(8-cyclopent-1-en-1-yl-7-methoxy-5-methyl-6-oxo-5,6-dihydropyrido[3,2-d]pyrimidin-2-yl)amino]-3-methoxy-N-(1-methylpiperidin-4-yl)benzamide], the IC50 was < 100 nM.
In the case of `COc1cc(C(=O)NC2CCN(C)CC2)ccc1Nc1ncc2c(cc(OCC3CC3)c(=O)n2C)n1` [Example 7, 4-{[7-(cyclopropylmethoxy)-5-methyl-6-oxo-5,6-dihydropyrido[3,2-d]pyrimidin-2-yl]amino}-3-methoxy-N-(1-methylpiperidin-4-yl)benzamide], the IC50 was < 100 nM.
The value for `COc1cc(C(=O)NC2CCN(C)CC2)ccc1Nc1ncc2c(cc(OCC3CCCC3)c(=O)n2C)n1` [Example 8, 4-{[7-(cyclopentylmethoxy)-5-methyl-6-oxo-5,6-dihydropyrido[3,2-d]pyrimidin-2-yl]amino}-3-methoxy-N-(1-methylpiperidin-4-yl)benzamide] was < 100 nM.
The value for `COc1cc(C(=O)NC2CCN(C)CC2)ccc1Nc1ncc2c(cc(OCC3CCCCC3)c(=O)n2C)n1` [Example 9, 4-{[7-(cyclohexylmethoxy)-5-methyl-6-oxo-5,6-dihydropyrido[3,2-d]pyrimidin-2-yl]amino}-3-methoxy-N-(1-methylpiperidin-4-yl)benzamide] was < 1000 nM; that for `COc1cc(C(=O)NC2CCN(C)CC2)ccc1Nc1ncc2c(n1)c(-c1ccco1)c(OC)c(=O)n2C` [Example 10, 4-{[8-(2-furyl)-7-methoxy-5-methyl-6-oxo-5,6-dihydropyrido[3,2-d]pyrimidin-2-yl]amino}-3-methoxy-N-(1-methylpiperidin-4-yl)benzamide] was < 100 nM; that for `COc1cc(C(=O)NC2CCN(C)CC2)ccc1Nc1ncc2c(n1)c(-c1ccoc1)c(OC)c(=O)n2C` [Example 11, 4-{[8-(3-furyl)-7-methoxy-5-methyl-6-oxo-5,6-dihydropyrido[3,2-d]pyrimidin-2-yl]amino}-3-methoxy-N-(1-methylpiperidin-4-yl)benzamide] was < 100 nM.
In the case of `COc1cc(C(=O)NC2CCN(C)CC2)ccc1Nc1ncc2c(cc(OCC3CCOC3)c(=O)n2C)n1` (centres unmarked) [Example 12, 3-methoxy-4-{[5-methyl-6-oxo-7-(tetrahydrofuran-3-ylmethoxy)-5,6-dihydropyrido[3,2-d]pyrimidin-2-yl]amino}-N-(1-methylpiperidin-4-yl)benzamide], the IC50 was < 1000 nM.
For the compound `COc1cc(C(=O)NC2CCN(C)CC2)ccc1Nc1ncc2c(cc(OCC3CCCO3)c(=O)n2C)n1` (centres unmarked) [Example 13, 3-methoxy-4-{[5-methyl-6-oxo-7-(tetrahydrofuran-2-ylmethoxy)-5,6-dihydropyrido[3,2-d]pyrimidin-2-yl]amino}-N-(1-methylpiperidin-4-yl)benzamide], the IC50 is < 1000 nM.
The value for `COc1cc(C(=O)NC2CCN(C)CC2)ccc1Nc1ncc2c(n1)c(C1CCCC1)c(OC)c(=O)n2C` [Example 14, 4-[(8-cyclopentyl-7-methoxy-5-methyl-6-oxo-5,6-dihydropyrido[3,2-d]pyrimidin-2-yl)amino]-3-methoxy-N-(1-methylpiperidin-4-yl)benzamide] was < 100 nM.
Turning to `COc1cc(C(=O)NC2CCN(C)CC2)ccc1Nc1ncc2c(n1)c(C1=C(C)CCC1)c(OC)c(=O)n2C` [Example 15, 3-methoxy-4-{[7-methoxy-5-methyl-8-(2-methylcyclopent-1-en-1-yl)-6-oxo-5,6-dihydropyrido[3,2-d]pyrimidin-2-yl]amino}-N-(1-methylpiperidin-4-yl)benzamide], the IC50 was < 1000 nM.
In the case of `COc1cc(C(=O)NC2CCN(C)CC2)ccc1Nc1ncc2c(n1)c(Cl)c(OC)c(=O)n2C` [Example 16, 4-[(8-chloro-7-methoxy-5-methyl-6-oxo-5,6-dihydropyrido[3,2-d]pyrimidin-2-yl)amino]-3-methoxy-N-(1-methylpiperidin-4-yl)benzamide], the IC50 is < 1000 nM.
For `COc1cc(C(=O)NC2CCN(C)CC2)ccc1Nc1ncc2c(n1)c(C1=C(C)CCCC1)c(OC)c(=O)n2C` [Example 17, 3-methoxy-4-{[7-methoxy-5-methyl-8-(2-methylcyclohex-1-en-1-yl)-6-oxo-5,6-dihydropyrido[3,2-d]pyrimidin-2-yl]amino}-N-(1-methylpiperidin-4-yl)benzamide], the IC50 was < 1000 nM.
Consider `C/C=C/c1c(OCC)c(=O)n(C)c2cnc(Nc3ccc(C(=O)NC4CCN(C)CC4)cc3OC)nc12` [Example 18, 4-({7-ethoxy-5-methyl-6-oxo-8-[(1E)-prop-1-en-1-yl]-5,6-dihydropyrido[3,2-d]pyrimidin-2-yl}amino)-3-methoxy-N-(1-methylpiperidin-4-yl)benzamide], for which the IC50 was < 100 nM.
Then `COc1cc(C(=O)NC2CCN(C)CC2)ccc1Nc1ncc2c(n1)c(C1CC1)c(OC)c(=O)n2C` [Example 19, 4-[(8-cyclopropyl-7-methoxy-5-methyl-6-oxo-5,6-dihydropyrido[3,2-d]pyrimidin-2-yl)amino]-3-methoxy-N-(1-methylpiperidin-4-yl)benzamide], with < 100 nM; and `C/C=C/c1c(OC)c(=O)n(C)c2cnc(Nc3ccc(C(=O)NCc4cncn4C)cc3OC)nc12` [Example 20, 3-methoxy-4-({7-methoxy-5-methyl-6-oxo-8-[(1E)-prop-1-en-1-yl]-5,6-dihydropyrido[3,2-d]pyrimidin-2-yl}amino)-N-[(1-methyl-1H-imidazol-5-yl)methyl]benzamide], with < 100 nM.

The record behind these values is EP2100894A1, “Pyridopyrimidines used as Plk1 (polo-like kinase) inhibitors” (4SC AG, priority 2008, dated 2009).
